Like-named read-outs stand apart in the source and are kept apart here.
Experiments:
A549 cells [1] = experiment: γH2AX DNA damage assay, A549 cells exposed to whole smoke or vapor phase of smoke (Example 2); format: cell-based, human; settings: for suppression of DNA damage (γH2AX): 25 mM NAC present during exposure; for effect of NAC on DNA damage: 25 mM NAC during exposure (FIG. 10); for IC50: Homo sapiens, from graph FIG. 11, read-out: concentration of NAC that reduced DNA damage by 50%
A549 cells [2] = experiment: Clonogenic survival assay (Example 3); format: cell-based
Description: A clonogenic survival assay was used to study the ability of tobaccos and tobacco products to impact the proliferation of cells. The experiment involves four major steps: (1) inoculate cells into culture dishes and incubate for 24-48 hours; (2) upon reaching the logarithmic phase of growth, the treatment is applied; the treatment in this case is freshly prepared and diluted CS for increasing periods of time; (3) the cells are then allowed to recover for a set number of hours (up to 24), then the cells are trypsinized, replated at specific dilutions, and allowed to continue growing for 5-7 days; the number of cells used depends largely on the plating efficiency of the cell line and must be determined empirically prior to the experiment; and (4) at the conclusion of the experiment, the cells are fixed, stained, and counted. The primary measure is to count surviving colonies of 25-50 cells which is presented as the percentage of cells which survived the treatment. A graphical representation of survival versus exposure time to CS is then generated. The surviving fraction is determined by dividing the number of colonies in the dish by the number of the colonies in the control (non-treated) dish.
A549 cells were exposed to smoke as previously described (see above). Following smoke exposure the medium is aspirated and the cells rinsed refed with 37° C. BEGM and placed in a 37° C., 5% CO2 humidified incubator for two to three hours. The cells are harvested by trypsinization with trypsin-EDTA (0.25% trypsin-0.38 mg/ml EDTA, Invitrogen). Cells are centrifuged at 260×g for 8 min. Cell pellets are resuspended in 1 ml of Ham's F-12K medium, 10% FBS (complete medium) per pellet and counted. Cells are serially diluted so that the mock treated have ˜65 cells per well and smoke treated have ˜300 cells per well when seeded onto 96-well flat bottom tissue culture plates; one plate per condition. The plates are incubated for five days in a 37° C., 5% CO2 humidified incubator. The colonies of cells are fixed with 5% formaldehyde/PBS and colored with 0.8% crystal violet solution for visualization. The colonies are counted with the aid of a macroscopic dissecting microscope. The cloning efficiency results are expressed in relation to the mock exposed cells. Unless otherwise indicated, each bar in the graphs represents three replicate data points per experiment.
In yet another series of experiments, the effect of NAC on cell death caused by the VAPOR phase of smoke from different cigarettes was evaluated. A549 cells were exposed to the vapor phase of smoke for 20 min by inserting a Cambridge filter pad immediately after the cigarette in the smoking apparatus so as to filter out the particulate matter (“tar”) and leave only the vapor phase. […]

NHBE cells = experiment: γH2AX DNA damage assay, NHBE cells exposed to whole smoke or vapor phase of smoke (Example 2); format: cell-based, human
Excerpt: In order to compare DNA damage as a function of the cell's position in the cell cycle, γH2AX values were normalized to DNA content since histone content doubles as cells proceed from G1 to G2 phase. Thus, in order to determine any change in histone H2AX phosphorylation independent of changes in histone/DNA content or DNA ploidy, the values for S and G2M phase populations, gated according to DNA content, were multiplied by 0.75 and 0.5, respectively. In instances where “normalized” values of γH2AX are presented, these values were obtained by subtracting the mean values of each cell cycle population (or the total population) from the mean of the mock-treated population whose γH2AX values represent “scheduled” γH2AX expression. In all instances, the values presented represent the mean γH2AX fluorescence of the population; typically 3-5×10^3 cells were analyzed for each condition.
The response of NHBE cells to whole smoke from IM 16 cigarettes was more or less identical to that observed for A549 cells (FIG. 7C). The one difference between the two cell lines was that S phase cells in NHBE cultures always expressed higher “scheduled” amounts of γH2AX.
In the next series of experiments, it was determined that DNA damage caused by whole smoke can be mitigated by the presence of NAC. Using a standardized set of conditions (20 min of exposure followed by a 1 h recovery), DNA damage caused by whole smoke from IM 16 cigarettes was assayed in both A549 and NHBE cells. NAC at a concentration of 25 mM was either absent or present during exposure and absent or present during the 1 h recovery time. In this instance, the background or “scheduled” γH2AX expression observed in Mock-treated cells was subtracted from each measurement. The remaining fluorescence should be indicative of the level of DNA DSBs under each set of conditions.
The vapor phase from IM 16 CS cause only about 30% (29.7%) of the damage caused by whole smoke whereas the vapor phase of smoke from Quest 1® caused 97% less damage than whole smoke from IM 16 cigarettes.

tobacco leaf disks = experiment: Norflurazone resistance of tobacco leaf disks transformed with PDSM genes; settings: Agrobacterium transformation of tobacco leaf disks; various norflurazone concentrations
Description: Other aspects of the invention concern the discovery of several mutants of the phytoene desaturase gene that confer resistance to the herbicide norflurazone (e.g., SEQ. ID. Nos.10, 11, and 12). These herbicide resistance genes were used as selectable markers in the transformations above. Typically, the selection was accomplished by introducing the transformed plant tissue to the norflurazone (e.g., 0.005 uM-0.1 uM conc.). That is, the concentration of norflurazone that can be used to select positive transformants containing a norflurazone resistance gene, as described herein can be at least, less than, greater than, or equal to 0.005, 0.006, 0.007, 0.008, 0.009, 0.01, 0.02, 0.03, 0.04, 0.05, 0.06, 0.07, 0.08, 0.09, 0.1, 0.2, 0.3, 0.4, 0.5, 0.6, 0.7, 0.8, 0.9, or 1.0 uM. Preferably, less than or equal to 0.05 uM concentration of norflurazone is used when selecting transformants with Flue-cured tobacco and less than or equal to 0.0125 uM concentration norflurazone is used when selecting transformants with Burley tobacco. As the plantlet develops, selection was accomplished by differentiating the green shoots (positive transformants) from the yellow or white shoots (negative transformants). Once selection was made, the herbicide was removed and the plantlet was allowed to develop in the greenhouse.
The norflurazone resistant phytoene desaturase mutants (PDSM-1, PDSM-2, and PDSM-3) were generated by site-directed mutagenesis of particular regions of the gene believed to be involved in binding of the herbicide. Constructs carrying the various PDSM genes were then transferred to tobacco leaf disks by conventional Agrobacterium transformation and the resistance to norflurazone was analyzed at various concentrations. After several iterations, the mutants described as SEQ. ID. […] Accordingly, aspects of the invention concern the PDSM genes described herein, their use in plants as selectable markers to identify plant cells that contain a transformed gene, whether in tissue culture or in the field, and methods of identifying new PDSM genes that confer norflurazone resistance.

In the case of `CC(=O)N[C@@H](CS)C(=O)O` [NAC, N-acetyl-L-cysteine], the “effect of NAC on vapor phase damage” value (A549 cells [1]; A549, each cell cycle phase, vapor phase from Quest 1 and Quest 3) is reported as “reduced damage to background levels”, the “suppression of DNA damage (γH2AX)” value (A549 cells [1]; A549, entire population, IM 16 whole smoke 20 min, 1 h recovery) is reported as “greater than 80%” and the “suppression of γH2AX” value (A549 cells [1]; A549, entire population, IM 16 whole smoke, 25 mM NAC during exposure and during 1 h recovery) is reported as 90%. The “mitigation of DNA damage” value (A549 cells [1]; A549, IM 16 whole smoke, 25 mM NAC applied to the media following exposure only) was “did nothing to mitigate the DNA damage”, the “effect of NAC on DNA damage” value (A549 cells [1]; A549, smoke from IM 16) was “dramatically reduced the effects of smoke” and the “effect of NAC on DNA damage” value (A549 cells [1]; A549, smoke from Omni) was “reduced the damage to near background levels”. For the same compound, the “effect of NAC on DNA damage” value (A549 cells [1]; A549, smoke from Quest 3) was “reduced to background levels”, the “reduction of γH2AX by NAC” value (A549 cells [1]; A549, vapor phase of smoke from IM 16, NAC during exposure) was 93.2% and the “reduction of γH2AX by NAC” value (A549 cells [1]; A549, vapor phase of smoke from Quest 1, NAC during exposure) was 98.9%. For the same compound, the “reduction of γH2AX by NAC” value (A549 cells [1]; A549, vapor phase of smoke from Quest 3, NAC during exposure) was 100%, the “reduction of γH2AX by NAC” value (A549 cells [1]; A549, whole smoke from IM 16, 25 mM NAC during exposure) was 89.1% and the “suppression of DNA damage (γH2AX)” value (A549 cells [1]; A549 G1 cells, IM 16 whole smoke) was 91%. For the same compound, the “reduction of damage by NAC” value (A549 cells [1]; A549 G1 phase, vapor phase of smoke from IM 16) was 98.5%, the “suppression of DNA damage (γH2AX)” value (A549 cells [1]; A549 G2M cells, IM 16 whole smoke) was 88% and the “reduction of damage by NAC” value (A549 cells [1]; A549 G2M phase, vapor phase of smoke from IM 16) was 92.2%. For the same compound, the “suppression of DNA damage (γH2AX)” value (A549 cells [1]; A549 S phase cells, IM 16 whole smoke) was 82%, the “reduction of damage by NAC” value (A549 cells [1]; A549 S phase, vapor phase of smoke from IM 16) was 89.0% and the “concentration dependence of NAC protection” value (A549 cells [1]; G1 and G2M A549 cells, IM 16 whole smoke 20 min, 1 h recovery) was “began to decrease when as little as 1 mM NAC was present”. It also gave an IC50 (A549 cells [1]; A549, G1 phase A549 cells, IM 16 whole smoke) of about 4.5 mM, an IC50 (A549 cells [1]; A549, G2M phase A549 cells, IM 16 whole smoke) of about 7.5 mM and an IC50 (A549 cells [1]; A549, S phase A549 cells, IM 16 whole smoke) of about 2.6 mM. For the same compound, the “concentration dependence of NAC protection” value (A549 cells [1]; S phase A549 cells, IM 16 whole smoke 20 min, 1 h recovery) was “unaffected by the presence of NAC up to a concentration of 5 mM”, the “protection of cell viability by NAC” value (A549 cells [2]; 20 min IM16 smoke, various concentrations of NAC (FIG. 16)) was “protected the viability of the cells in a dose-dependent manner” and the “protection of cell viability by NAC” value (A549 cells [2]; 20 min Omni or IM16 smoke, 25 mM NAC) was “partially protected”. The “protection of cell viability by NAC” value (A549 cells [2]; 20 min Quest 3 smoke, 25 mM NAC) was “completely protected”, the “protection of cell viability by NAC” value (A549 cells [2]; all vapor phase exposures, 25 mM NAC) was “protected the cells against viability loss” and the “decrease of DNA damage by NAC” value (NHBE cells; NHBE G1 cells, IM 16 whole smoke, 25 mM NAC present during exposure) was about 69%. The “decrease of DNA damage by NAC” value (NHBE cells; NHBE G2M cells, IM 16 whole smoke, 25 mM NAC present during exposure) was “about 65%”, the “protection by NAC” value (NHBE cells; NHBE S phase cells, IM 16 whole smoke, 25 mM NAC present during exposure) was “afforded no protection” and the “protection by NAC” value (NHBE cells; NHBE, IM 16 whole smoke, 25 mM NAC during exposure and recovery) was “small degree of additional protection”. The “effect of NAC on level of DNA damage” value (NHBE cells; NHBE, IM 16 whole smoke, 25 mM NAC only during recovery) was “little effect on the level of DNA damage”, the “effect of NAC on vapor phase DNA damage” value (NHBE cells; NHBE, vapor phase of IM 16, Quest 1 or Quest 3) was “abolished virtually all DNA damage” and the “effect of NAC on vapor phase damage” value (NHBE cells; NHBE, vapor phase of smoke from IM 16 (FIG. 13)) was “to background levels or below”. For the same compound, the “effect of NAC on vapor phase damage” value (NHBE cells; NHBE, vapor phase of smoke from Quest cigarettes) was “inhibited” and the “reduction of γH2AX by NAC” value (NHBE cells; NHBE, whole smoke from IM 16, NAC during exposure) was 77.9%.
With “PDSM-1: Arabidopsis phytoene desaturase mutant gene, T to G at position 1478 (Valine to Glycine at residue 493)” the resistance to norflurazone (tobacco leaf disks) was “confer resistance to norflurazone”.
In the case of “PDSM-2: Arabidopsis phytoene desaturase mutant gene, G to C at position 863 (Arginine to Proline at residue 288)”, the resistance to norflurazone (tobacco leaf disks) is reported as “confer resistance to norflurazone”.
In the case of “PDSM-3: Arabidopsis phytoene desaturase mutant gene, T to C at position 1226 (Leucine to Proline at residue 409)”, the resistance to norflurazone (tobacco leaf disks) is reported as “confer resistance to norflurazone”.

From patent US7662565B2, “Approaches to identify less harmful tobacco and tobacco products” (Vector Tobacco, Inc., priority 2004, dated 2010)
